Results on eight compounds are retold here after patent US7507717B2 (Xenome Ltd., priority 2002, dated 2009).

Residues, ends and D or L forms follow the SMILES beside them.

Assay [1] addresses T1, human noradrenaline transporter (hNET) (Homo sapiens, UniProt P23975).
T1 construct: expressed in transfected cells; host or cells: COS-7 cells (ATCC), transient transfection with metafectene
The assay can be described thus: biochemical. The settings on record: Av IC50 Displacement of 3H-nisoxetine from hNET. Format: binding. (Displacement assays read how much labelled ligand stays bound in the presence of the test substance.)

Assay [2] deals with T1, human noradrenaline transporter (hNET). The assay can be described thus: cell-based.

T1 sequence (P23975 whole entry): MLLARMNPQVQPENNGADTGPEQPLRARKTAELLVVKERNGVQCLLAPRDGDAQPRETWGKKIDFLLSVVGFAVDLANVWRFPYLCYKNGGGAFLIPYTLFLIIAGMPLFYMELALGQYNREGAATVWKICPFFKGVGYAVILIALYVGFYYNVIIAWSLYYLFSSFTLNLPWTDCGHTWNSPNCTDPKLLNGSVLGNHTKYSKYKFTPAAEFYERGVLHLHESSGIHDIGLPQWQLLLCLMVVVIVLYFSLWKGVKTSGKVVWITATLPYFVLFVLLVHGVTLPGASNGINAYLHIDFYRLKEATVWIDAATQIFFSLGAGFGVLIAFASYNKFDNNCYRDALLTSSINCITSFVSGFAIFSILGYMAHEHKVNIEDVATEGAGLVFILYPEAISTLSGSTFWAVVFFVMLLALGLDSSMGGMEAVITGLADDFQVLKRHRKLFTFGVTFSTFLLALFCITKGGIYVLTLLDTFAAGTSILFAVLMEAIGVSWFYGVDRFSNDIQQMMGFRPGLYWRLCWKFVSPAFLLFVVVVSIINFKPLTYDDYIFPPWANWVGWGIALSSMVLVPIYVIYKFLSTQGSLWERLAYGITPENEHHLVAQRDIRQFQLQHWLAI

As usually defined, the IC50 is the concentration that gives 50% inhibition. A high value points to a need for much substance. Consider `CC(C)C[C@H](NC(=O)[C@H](CC(=O)O)NC(=O)[C@H](CCCCN)NC(=O)[C@@H](N)Cc1c[nH]c2ccccc12)C(=O)N[C@H]1CSSC[C@@H](C(N)=O)NC(=O)[C@@H]2CCCN2C(=O)[C@H](Cc2c[nH]cn2)NC(=O)[C@@H]2CSSC[C@H](NC1=O)C(=O)NCC(=O)N[C@@H](Cc1ccc(O)cc1)C(=O)N[C@@H](CCCCN)C(=O)N[C@@H](CC(C)C)C(=O)N2` [compound 85] (HELM PEPTIDE1{W.K.D.L.C.C.G.Y.K.L.C.H.P.C.[am]}$PEPTIDE1,PEPTIDE1,5:R3-14:R3|PEPTIDE1,PEPTIDE1,6:R3-11:R3$$$V2.0), for which the IC50 is 309 nM in assay [1] and 89.1 nM in assay [2].

For `CC(C)C[C@@H]1NC(=O)[C@H](CCCCN)NC(=O)[C@H](Cc2ccc(O)cc2)NC(=O)CNC(=O)[C@@H]2CSSC[C@H](NC1=O)C(=O)N[C@@H](Cc1c[nH]cn1)C(=O)N1CCC[C@H]1C(=O)N[C@H](C(N)=O)CSSC[C@H](NC(=O)[C@@H](NC(=O)CNC(=O)[C@@H](N)CC(N)=O)C(C)C)C(=O)N2` [compound 146], the figures for the IC50 in assay [1] and in assay [2] were 3090 nM and 741 nM, respectively.

In the case of `CC(C)C[C@@H]1NC(=O)[C@H](CCCCN)NC(=O)[C@H](Cc2ccc(O)cc2)NC(=O)CNC(=O)[C@@H]2CSSC[C@H](NC1=O)C(=O)N[C@@H](Cc1c[nH]cn1)C(=O)N1CCC[C@H]1C(=O)N[C@H](C(N)=O)CSSC[C@H](NC(=O)[C@@H](NC(=O)CNC(=O)[C@H](CC(N)=O)NC(=O)[C@@H](N)Cc1c[nH]c3ccccc13)C(C)C)C(=O)N2` [compound 82], the IC50 in assay [1] is 295 nM; in assay [2] it was 3160 nM.

With `CC(C)C[C@@H]1NC(=O)[C@H](CCCCN)NC(=O)[C@H](Cc2ccc(O)cc2)NC(=O)CNC(=O)[C@@H]2CSSC[C@H](NC1=O)C(=O)N[C@@H](CCCNC(=N)N)C(=O)N1CCC[C@H]1C(=O)N[C@H](C(N)=O)CSSC[C@H](NC(=O)[C@@H](NC(=O)CNC(=O)[C@H](CC(N)=O)NC(=O)[C@@H](N)Cc1ccc(O)cc1)C(C)C)C(=O)N2` [compound 89], the IC50 was 339 nM in assay [1] and 112 nM in assay [2].

For `CC(C)C[C@@H]1NC(=O)[C@H](CCCCN)NC(=O)[C@H](Cc2ccc(O)cc2)NC(=O)CNC(=O)[C@@H]2CSSC[C@H](NC1=O)C(=O)N[C@@H](Cc1c[nH]c3ccccc13)C(=O)N1CCC[C@H]1C(=O)N[C@H](C(N)=O)CSSC[C@H](NC(=O)[C@@H](NC(=O)[C@H](CC(=O)O)NC(=O)[C@H](CCCCN)NC(=O)[C@@H](N)Cc1c[nH]c3ccccc13)C(C)C)C(=O)N2` [compound 92] (HELM PEPTIDE1{W.K.D.V.C.C.G.Y.K.L.C.W.P.C.[am]}$PEPTIDE1,PEPTIDE1,5:R3-14:R3|PEPTIDE1,PEPTIDE1,6:R3-11:R3$$$V2.0), the IC50 in assay [1] was 407 nM; in assay [2] it was 36.3 nM.

In the case of `CC(C)C[C@@H]1NC(=O)[C@H](CCCCN)NC(=O)[C@H](Cc2ccc(O)cc2)NC(=O)CNC(=O)[C@@H]2CSSC[C@H](NC1=O)C(=O)N[C@H](C(N)=O)CSSC[C@H](NC(=O)[C@@H](N)C(C)C)C(=O)N2` [compound 148] (HELM PEPTIDE1{V.C.C.G.Y.K.L.C.C.[am]}$PEPTIDE1,PEPTIDE1,2:R3-9:R3|PEPTIDE1,PEPTIDE1,3:R3-8:R3$$$V2.0), the IC50 in assay [1] is 3160 nM; in assay [2] it was 347 nM.

As for `CC(C)C[C@@H]1NC(=O)[C@H](CCCCN)NC(=O)[C@H](Cc2ccc(O)cc2)NC(=O)CNC(=O)[C@@H]2CSSC[C@H](NC1=O)C(=O)N[C@@H](Cc1c[nH]cn1)C(=O)N1CCC[C@H]1C(=O)N[C@H](C(N)=O)CSSC[C@H](NC(=O)[C@@H](NC(=O)[C@H](CCCNC(=N)N)NC(=O)[C@H](CC(N)=O)NC(=O)[C@@H](N)Cc1ccc(O)cc1)C(C)C)C(=O)N2` [compound 118] (HELM PEPTIDE1{Y.N.R.V.C.C.G.Y.K.L.C.H.P.C.[am]}$PEPTIDE1,PEPTIDE1,5:R3-14:R3|PEPTIDE1,PEPTIDE1,6:R3-11:R3$$$V2.0), the IC50 in assay [1] is 1170 nM. This counts as single-digit micromolar.

Consider `CC(C)C[C@@H]1NC(=O)[C@H](CCCCN)NC(=O)[C@H](Cc2ccc(O)cc2)NC(=O)CNC(=O)[C@@H]2CSSC[C@H](NC1=O)C(=O)N[C@@H](Cc1c[nH]cn1)C(=O)N[C@@H](Cc1ccccc1)C(=O)N[C@H](C(N)=O)CSSC[C@H](NC(=O)[C@@H](NC(=O)CNC(=O)[C@@H](N)CC(N)=O)C(C)C)C(=O)N2` [compound 155], for which the IC50 in assay [1] is 4070 nM.
